pKi: −log10 of the molar value.
Tests used:
α1A-AR [1] = biological target: T1, α1A-AR (Homo sapiens, UniProt P35348); assay: IP accumulation in α1A-AR_CHO stable cells; assay type: cell-based; parameters: expressed in transfected cells; details: Iso up to 1 mM
T1 sequence (P35348 1-466): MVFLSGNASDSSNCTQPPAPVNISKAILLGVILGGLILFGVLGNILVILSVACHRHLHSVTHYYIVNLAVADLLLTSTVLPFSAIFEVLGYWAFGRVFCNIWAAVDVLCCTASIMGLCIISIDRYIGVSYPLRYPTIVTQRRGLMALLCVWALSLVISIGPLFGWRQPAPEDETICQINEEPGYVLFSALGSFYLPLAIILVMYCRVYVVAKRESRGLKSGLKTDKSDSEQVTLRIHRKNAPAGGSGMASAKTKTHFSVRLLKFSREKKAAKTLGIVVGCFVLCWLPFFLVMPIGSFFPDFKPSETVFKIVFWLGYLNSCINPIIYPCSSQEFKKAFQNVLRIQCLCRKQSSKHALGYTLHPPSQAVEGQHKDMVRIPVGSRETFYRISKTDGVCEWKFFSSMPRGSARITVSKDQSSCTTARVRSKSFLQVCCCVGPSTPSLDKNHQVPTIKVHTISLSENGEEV
Procedure: (§1) After 10–20 minutes, 10 μL of agonist was added followed by incubation for 5 to 30 minutes. Stimulation was stopped by addition of lysis buffer. Second messenger levels were determined using a homogeneous immunoassay method with time-resolved FRET detection (IP-One HTRF, Cisbio International) according to protocols provided by the supplier. Sample fluorescence was measured with a Nanoscan plate reader (IOM, Berlin). Each data point represents the average of quadruplicate determinations and each experiment was performed at least two times independently.
IP1, IP2, and IP3 levels were determined via LC-MS. Plots are representative of three independent experiments with each data point being the average of triplicates.

β3-AR = details: in presence of GTP; cited from earlier work
α1A-AR [2] = biological target: T1, α1A-AR; assay: Ca2+ transient response (FLIPR, fluo3) in α1A-AR transduced HEK-293/EBNA cells; assay type: cell-based; parameters: expressed in transfected cells; host or cells: HEK-293/EBNA (baculovirus transduction, NaBu induction)
Procedure: (§2) Prior to experiments, cells were transduced with baculovirus strains designed for transient expression of α1A-AR or aldehyde oxidase (negative control). This was performed by incubating cells with virus (MOI 100–150) for 3 to 4 h, followed by exchange into fresh serum free growth medium supplemented with 4 mM sodium butyrate (NaBu). Cells were grown for another 14 to 18 h and then examined for agonist-evoked responses in transient Ca^2+ release, IP accumulation or pERK activation assays. The surface receptor expression density was determined by flow cytometry via immunofluorescence labeling of an N-terminal HA epitope tag on the receptor and radioligand binding in partially purified membranes.
(§3) Cells were resuspended in Hank’s balanced salt solution (Invitrogen) supplemented with 2 mM CaCl2, 10 mM HEPES pH 7.4, 2.5 mM probenecid, plus 1g/L each of glucose and bovine serum albumin (BSA), and seeded in poly-D-lysine coated 96-well black plates with transparent bottom (Costar) at a density of 50,000 cells/0.1 mL per well. Cells were then incubated for 1 h at 37°C with an additional 0.1 mL of buffer containing 4 μM fluo3-AM that was diluted from a stock solution containing 1 mM fluo3-AM dye in DMSO with 10% pluronic acid. After dye loading incubation, plates were washed twice with 100 μL of buffer and refilled with 100 μL of assay buffer. In experiments testing the effect of antagonists, 25 μL of buffer from wells of washed cells were replaced with 25 μL of vehicle or 4× antagonist solution. Pre-incubation of ligand with dye-loaded cells proceeded for 5–30 minutes immediately prior to measurements of agonist-evoked responses. Agonist-evoked Ca^2+ mobilization responses of cell populations were monitored at room temperature simultaneously in all wells of the assay plate using the plate-imaging fluorometric reader FLIPR (MDS Analytical Technologies, Sunnyvale, CA). […] The amplitudes of Ca^2+ transient responses are reported as ΔF/F0, or fold-change in Ca^2+ dye fluorescence relative to the baseline signal ΔF/F0 = (F-F0)/F0 +1 (where ΔF is maximal fluorescence intensity observed following agonist application, F0 = baseline fluorescence, or average intensity measured over the 10 s interval prior to agonist application). Image acquisition rates were varied from 1 Hz during the first 100 s of measurements to 0.5 Hz for the remaining time of the recording.
(§4) Graphs shown reflect either pooled or representative data (see figure legends). For concentration-response analysis, results from Ca^2+ mobilization experiments were plotted as ΔF/F0 vs. agonist concentration and fit to a sigmoidal concentration-response equation using the GraphPad Prism software package. In cases where biphasic concentration-response curves were observed data were fit to a two-site concentration-response model: F(X)=R0+(Rmax−R0)[Fr1/(1+10^X-logEC50,1)+(1−Fr1)/(1+10^X-logEC50,2)] (1) , where X is the logarithm of the agonist concentration, R0 and Rmax are respectively the response minimum and maximum; Fr1 is the response fraction attributable to receptor characterized by half effective concentration of the first response phase (EC50,1), with the reminder response attributable to the second half effective concentration (EC50,2). For radioligand binding experiments, B max values were calculated from maximum binding using the equation B max = (SB × ([…] + [L])/[L]), where SB is the specific binding expressed as fmol per mg of membrane protein, and [L] is the ligand concentration.

α1A-AR [3] = biological target: T1, α1A-AR; assay: IP accumulation (IP-One HTRF) in α1A-AR transduced HEK-293/EBNA cells; assay type: cell-based; parameters: expressed in transfected cells; host or cells: HEK-293/EBNA (baculovirus transduction, NaBu induction); details: α1A-AR transduced HEK-293/EBNA; Iso up to 10 mM
Procedure: as §2, §1

α1A-AR [4] = assay: Ca2+ transient response (FLIPR, fluo3) in α1A-AR transduced HEK-293/EBNA cells; assay type: cell-based; details: 100 μM Iso, α1A-AR_HEK-293/EBNA
Procedure: as §2, §3, §4

CC(C)NCC(O)c1ccc(O)c(O)c1 (stereo not shown) [Iso, isoproterenol]
IP accumulation (α1A-AR [1]): no IP accumulation could be detected | pKi (β3-AR): 5.80 | maximal response amplitude ΔF/F0 in presence of ICI 118,551 (α1A-AR [2]): 1.3 | magnitude ΔF/F0 in presence of RS100329 (α1A-AR [2]; 10 nM RS100329 pretreatment): 1.2 | ΔF/F0, β2-AR-dependent phase (α1A-AR [2]; pertussis toxin 100 ng/mL, 18 h): 1.5 | ΔF/F0, β2-AR-dependent phase (α1A-AR [2]; vehicle (no PTX), Fig. 4B): 1.3 | diminution of low potency phase of response in absence of extracellular Ca2+ (α1A-AR [2]; α1A-AR transduced cells): approximately 50% | IP accumulation (α1A-AR [3]): no significant accumulation of IP was detected | decline from peak amplitude within 100 sec (α1A-AR [4]): > 75% | delay from addition of agonist to the rise in Ca2+ (α1A-AR [4]): 5 to 10 s

From PMC4301629 (PLoS ONE, 2015)
